From patent US20240142438A1, “MULTI-ORGAN MODEL” (CELLARTGEN INC., priority 2021, published 2024)
“Also recorded” adds a separate entry of the source.

Key:
intestinal organoid = experiment: Candidate drugs on intestinal organoid in multi-organ NASH organoid model (chip); assay type: cell-based, mouse; settings: oleic acid 500 μM + drug 50 μM, 3 days in liver chamber
Protocol: (§1) A multi-organ NASH model was constructed by applying not only conventional Matrigel, a commercially available culture scaffold, but also a decellularized tissue-derived hydrogel scaffold to culture of each organoid in a multi-organ device. Liver and pancreas organoids were obtained by extracting adult stem cells from a mouse tissue, encapsulated in a decellularized liver tissue-derived matrix (6 mg/ml) and a decellularized pancreas tissue-derived matrix (4 mg/ml), respectively, at a cell density of 70,000 cells/30 μL gel, and cultured. An intestinal organoid was obtained by extracting intestinal crypts from a mouse intestinal tissue and encapsulated in a decellularized intestinal tissue-derived matrix (2 mg/ml) at a cell density of 800 crypts/30 μL gel, and cultured. […] The cardiac organoid was cultured on a hydrogel (20 organoids/70 μL gel bed) prepared by crosslinking of a decellularized cardiac tissue-derived matrix (5 mg/ml) in the form of a 70 μL gel bed at the bottom of the device. The decellularized matrix for culturing each organoid was applied at the optimal concentration for differentiation of each organoid as determined through previous research.

cardiac organoid = experiment: Candidate drugs on cardiac organoid in multi-organ NASH organoid model (chip); assay type: cell-based, mouse; settings: oleic acid 500 μM + drug 50 μM, 3 days in liver chamber
Protocol: as §1

liver organoid = experiment: Candidate drugs on liver organoid in multi-organ NASH organoid model (chip); assay type: cell-based, mouse; settings: oleic acid 500 μM + drug 50 μM, 3 days; for low-density cholesterol (LDL) levels in the liver organoids: cholesterol analysis of disrupted organoids, vs No Treatment (NT)
Protocol: as §1
Obeticholic acid (OCA), a semi-synthetic bile acid analog, is an agonist for FXR (farnesoid X receptor) to regulate bile acid metabolism, inflammation, fibrosis, and sugar/lipid metabolism. […] Elafibranor (Ela), a dual agonist for PPARα/δ, is a drug that inhibits fatty acid biosynthesis and glucose biosynthesis in the liver and has been used as a drug for cardiometabolic diseases. Liraglutide (Lira), an agonist for glucagon-like peptide-1 (GLP-1), is a drug that has been used to treat diabetes.

[1] = system: human iPSC-derived pancreas organoids; settings: immunofluorescence staining; oleic acid 500 μM + drug 50 μM, 3 days in liver chamber
Protocol: Human iPSC-derived liver organoids were differentiated into hepatic endoderm cells through endoderm, and then a total of 500,000 cells including the hepatic endoderm cells, vascular endothelial cells (HUVEC) and mesenchymal stem cells (hMSC) at a ratio of 10:7:2 were mixed in 10 μL of culture medium. The mixture was coated onto 10 μL of a decellularized liver tissue-derived matrix (LEM) to induce the formation of three-dimensional organoids. […] Human iPSC-derived pancreas organoids were differentiated into beta cells through endoderm, gut endoderm, pancreatic endoderm, and pancreatic progenitor cells, and then a total of 500,000 cells including the beta cells, vascular endothelial cells (HUVEC) and mesenchymal stem cells (hMSC) at a ratio of 10:7:2 were mixed in 10 μL of culture medium. The mixture was coated onto 10 μL of a decellularized pancreas tissue-derived matrix (PEM) to induce the formation of three-dimensional organoids. […] Each organoids cultured in a decellularized tissue-derived matrix was seeded into a multi-organ microfluidic device and then cultured in a normal culture medium suitable for each organ for 2 days. […]

[2] = system: human iPSC-derived intestinal organoids; settings: immunofluorescence staining, oleic acid 500 μM + drug 50 μM, 3 days in liver chamber
Protocol: (§2) Human iPSC-derived intestinal organoids were differentiated into hindgut spheroids through endoderm, encapsulated in Matrigel, and matured for about 20 to 30 days. The mature intestinal organoids were extracted from Matrigel, re-encapsulated in a decellularized intestinal tissue-derived matrix
(§3) (IEM), and further cultured. […] Human iPSC-derived cardiac organoids were induced to mature into cardiomyocytes through mesenchyma and cardiac progenitor cells, and then 400,000 cells were mixed in 20 μL of a decellularized heart tissue-derived matrix (HEM) to prepare three-dimensional organoids. […] Each organoids cultured in a decellularized tissue-derived matrix was seeded into a multi-organ microfluidic device and then cultured in a normal culture medium suitable for each organ for 2 days. Then, the NASH group was treated with oleic acid (500 μM) and cultured for 3 days only in the chamber in which the liver organoid was cultured, and the groups treated with the respective drugs were treated with oleic acid (500 μM) and the respective drugs (50 μM) for 3 days in the chamber in which the liver organoid was cultured. A multi-organ device in which a normal liver organoid (Normal) not treated with the fatty acid was used as a control group.

[3] = system: human iPSC-derived cardiac organoids; settings: immunofluorescence staining; oleic acid 500 μM + drug 50 μM, 3 days in liver chamber
Protocol: as §2, §3

pancreas organoid = experiment: Candidate drugs on pancreas organoid in multi-organ NASH organoid model (chip); assay type: cell-based, mouse; settings: oleic acid 500 μM + drug 50 μM, 3 days in liver chamber
Protocol: as §1

[4] = system: human iPSC-derived liver organoids; experiment: Candidate drugs on hiPSC-derived liver organoids in multi-organ NASH model; assay type: cell-based; settings: oleic acid 500 μM + drug 50 μM, 3 days
Protocol: Human iPSC-derived liver organoids were differentiated into hepatic endoderm cells through endoderm, and then a total of 500,000 cells including the hepatic endoderm cells, vascular endothelial cells (HUVEC) and mesenchymal stem cells (hMSC) at a ratio of 10:7:2 were mixed in 10 μL of culture medium. The mixture was coated onto 10 μL of a decellularized liver tissue-derived matrix (LEM) to induce the formation of three-dimensional organoids. […] Human iPSC-derived pancreas organoids were differentiated into beta cells through endoderm, gut endoderm, pancreatic endoderm, and pancreatic progenitor cells, and then a total of 500,000 cells including the beta cells, vascular endothelial cells (HUVEC) and mesenchymal stem cells (hMSC) at a ratio of 10:7:2 were mixed in 10 μL of culture medium. The mixture was coated onto 10 μL of a decellularized pancreas tissue-derived matrix (PEM) to induce the formation of three-dimensional organoids. […] Each organoids cultured in a decellularized tissue-derived matrix was seeded into a multi-organ microfluidic device and then cultured in a normal culture medium suitable for each organ for 2 days. Then, the NASH group was treated with oleic acid (500 μM) and cultured for 3 days only in the chamber in which the liver organoid was cultured, and the groups treated with the respective drugs were treated with oleic acid (500 μM) and the respective drugs (50 μM) for 3 days in the chamber in which the liver organoid was cultured. A multi-organ device in which a normal liver organoid (Normal) not treated with the fatty acid was used as a control group.

Compound: CSc1ccc(C(=O)/C=C/c2cc(C)c(OC(C)(C)C(=O)O)c(C)c2)cc1 [Ela, Elafibranor]
- expression level of OCLN, a tight junction marker of the gut barrier (intestinal organoid; quantitative PCR): not improved
- expression levels of CHGA and MUC2, intestinal differentiation markers (intestinal organoid; quantitative PCR): not much recovered; also recorded: lower in the Ela-treated group than in No Treatment (NT) group
- expression of CTNT and F-actin, myocardial differentiation and actin-filament markers (cardiac organoid; immunostaining): recovered to some extent
- expression level of ACTC1, a cardiac differentiation marker (cardiac organoid; quantitative PCR): recovered
- low-density cholesterol (LDL) levels in the liver organoids (liver organoid): an improvement in LDL levels compared to the No Treatment (NT) group; also recorded: a greater improvement than Lira
- expression level of α-SMA, a fibrosis marker (fibrosis) (liver organoid; immunofluorescence staining): improved the most
- COL1A1 expression (liver organoid; quantitative PCR): remarkably effective in reducing the increased expression of COL1A1
- expression levels of HNF4A and ALB, hepatic differentiation markers (liver organoid; quantitative PCR): no significant effect on hepatic differentiation and functional recovery
- expression of α-SMA and COL1A1, fibrosis and drug toxicity-related markers (liver organoid; quantitative PCR): improved

Compound: O=C1[C@H](CC[C@H](O)c2ccc(F)cc2)[C@@H](c2ccc(O)cc2)N1c1ccc(F)cc1 [Eze, Ezetimibe]
- expression levels of insulin and NKX6.1, pancreatic differentiation markers [1]: less significantly recovered
- expression of NPC1L1 (intestinal organoid; immunostaining): the most significant decrease in expression
- expression level of OCLN, a tight junction marker of the gut barrier (intestinal organoid; quantitative PCR): recovered to some extent
- expression levels of CHGA and MUC2, intestinal differentiation markers (intestinal organoid; quantitative PCR): not much recovered
- gene expression of FGF15 in the intestinal organoid (intestinal organoid; quantitative PCR): recovered to some extent
- expression level of NPC1L1 [2]: decreased
- expression level of the differentiation marker, MUC2 ([2]; vs No Treatment group): recovered to some extent
- expression level of ACTC1, a cardiac differentiation marker (cardiac organoid; quantitative PCR): limitations in improving cardiac differentiation/functionality
- expression levels of CTNT and F-actin, myocardial differentiation and actin-filament markers [3]: recovered to some extent
- low-density cholesterol (LDL) levels in the liver organoids (liver organoid): significantly lower than those in the No Treatment (NT) group
- expression levels of HNF4A and ALB, hepatic differentiation markers (liver organoid; quantitative PCR): recovered to some extent
- expression of α-SMA and COL1A1, fibrosis and drug toxicity-related markers (liver organoid; quantitative PCR): improved
- expression level of KRT19, a pancreatic exocrine cell marker (pancreas organoid; quantitative PCR): recovered to some extent
- expression level of PDX1, an endocrine cell marker (pancreas organoid; quantitative PCR): not recovered
- expression level of FGF19 ([4]; immunofluorescence staining): recovered only in the OCA-treated group
- expression level of α-SMA, a fibrosis and drug toxicity-related marker ([4]; immunofluorescence staining): decreased to some extent
- fatty acid accumulation (BODIPY staining) [4]: partially decreased
- structure of the liver organoids ([4]; optical microscopy): some of the cells in the outer part died

Compound: CCCCCCCCCCCCCCCC(=O)N[C@@H](CCC(=O)NCCCC[C@H](NC(=O)[C@H](C)NC(=O)[C@H](C)NC(=O)[C@H](CCC(N)=O)NC(=O)CNC(=O)[C@H](CCC(=O)O)NC(=O)[C@H](CC(C)C)NC(=O)[C@H](Cc1ccc(O)cc1)NC(=O)[C@H](CO)NC(=O)[C@H](CO)NC(=O)[C@@H](NC(=O)[C@H](CC(=O)O)NC(=O)[C@H](CO)NC(=O)[C@@H](NC(=O)[C@H](Cc1ccccc1)NC(=O)[C@@H](NC(=O)CNC(=O)[C@H](CCC(=O)O)NC(=O)[C@H](C)NC(=O)[C@@H](N)Cc1cnc[nH]1)[C@@H](C)O)[C@@H](C)O)C(C)C)C(=O)N[C@@H](CCC(=O)O)C(=O)N[C@@H](Cc1ccccc1)C(=O)N[C@H](C(=O)N[C@@H](C)C(=O)N[C@@H](Cc1c[nH]c2ccccc12)C(=O)N[C@@H](CC(C)C)C(=O)N[C@H](C(=O)N[C@@H](CCCNC(=N)N)C(=O)NCC(=O)N[C@@H](CCCNC(=N)N)C(=O)NCC(=O)O)C(C)C)[C@@H](C)CC)C(=O)O [Lira, Liraglutide]
- gut barrier and budding of the intestinal organoid (intestinal organoid; optical microscopy): the gut barrier was maintained to some extent but organoid budding hardly occurred
- expression level of α-SMA, a fibrosis and drug toxicity-related marker (cardiac organoid; immunostaining): fibrosis was not improved
- shape of the cardiac organoids (cardiac organoid; optical microscopy): some cells inside the organoids died, inducing severe cardiotoxicity
- expression level of α-SMA, a fibrosis and drug toxicity-related marker (fibrosis) (cardiac organoid; quantitative PCR): fibrosis tended to worsen
- epithelial lumen of the pancreas organoids (pancreas organoid; optical microscopy): increased in thickness, showing the pattern of early fibrosis
- expression level of α-SMA, a fibrosis and drug toxicity-related marker (pancreas organoid; quantitative PCR): pancreatitis and fibrosis were reduced
